Measured values: patent US20110105623A1 (Biogenic Innovations, LLC, priority 2009, published 2011)
“And” between values parts separate entries of the source, which are not always exact repeats. Equal entries are not always repeated.

Tests used:
Lactobacillus rhamnosus = assay: Growth in MRS broth fortified with MSM; assay type: cell-based; conditions: for Growth: 0.04% MSM in MRS broth, 0-72 hours
Description: Each organism (Lactobacillus rhamnosus, Lactobacillus acidophilus, and Bifidobacterium bifidum) was grown in MRS bacterial growth medium (broth) and plated on MRS agar at different time intervals. Results are expressed in colony forming units per milliliter (cfu/mL).
The 0.1% and 0.04% test concentrations were prepared by making a 1:10 dilution of the 1% and 0.4% test solutions. Once each set of test media was plated for sterility, they were inoculated at a level of 100 μl of inoculum per 100 g or mLs of test broth (1:1000 inoculum dilutions) with each respective microorganism. All bacterial organisms were incubated at 35° C.+/−2° C. for the duration of the study.
All samples were plated on MRS agar at time 0, 12, 36, 48, 60 and 72 hours (+/−45 minutes). All preparations and plating were conducted at room temperature. All plating events were incubated at 35° C.+/−2° C. for at least 2 days or 3 days for Bifidobacterium. Test samples were plated in triplicate at each test date and the averages are reported.

[1] = test system: Acidophilus plus Bifidus milk microorganisms; assay: Growth in Acidophilus plus Bifidus milk fortified with MSM; conditions: A/B milk […] MSM
Description: Then samples were evaluated every 7 days for a total of 28 days. […] The milks were bought at a local store. The Acidophilus milk was low fat (Darigold). The Acidophilus plus Bifidus milk contained 2% milkfat (Lucerne). […] The working solutions were held at 4° C. during the study.

Chlorella sorokiniana = assay: Algal growth by percent transmittance at 750 nm; assay type: cell-based
Description: Two species of Chlorella were examined for growth—Chlorella sorokiniana a freshwater species and Chlorella minutissima a marine species. […] Growth was measured on day 0, 1, 2, 3, 4, 5, 6, 7, 8, 9 and 10. […] The following media were purchased from UTEX Culture Collection of Algae: Enriched Salt Water Medium and Volvox Dextrose Medium.
The algae were grown for 48 hours in the appropriate medium. The initial suspension was enumerated for each alga and is referred to as the starting inoculums. Chlorella sorokiniana was at 381 million cells per milliliter and Chlorella minutissima was at 19 million cells per milliliter. One milliliter of the algal solution was placed into 9 mLs of medium and mixed by vortexing. […] The tube of algae and MSM were incubated at room temperature with exposure to sunlight. […] Each dilution of MSM for each organism was set up in and analyzed in triplicate for each time interval measured. The samples were measured by percent transmittance on a UV/VIS spectrophotometer at wavelength 750 nm. The medium stock was tested for percent transmittance background levels at every time interval were measured. The lower percent transmittance indicated a higher growth factor.

[2] = test system: Lactobacillus acidophilus milk; assay: Growth in simulated gastric acid supplemented with MSM; conditions: for Log Growth of L. acidophilus in milk average / Log Growth of L. acidophilus in milk in duplicate: simulated gastric acid

Methylsulfonylmethane [MSM]
Growth (Lactobacillus rhamnosus; 0 hours after inoculation): 1.7 × 10^6 cfu/mL | Growth (Lactobacillus rhamnosus; 12 hours after inoculation): 2.1 × 10^7 cfu/mL | Growth (Lactobacillus rhamnosus; 24 hours after inoculation): 1.5 × 10^9 cfu/mL | Growth (Lactobacillus rhamnosus; 36 hours after inoculation): 1.8 × 10^9 cfu/mL | Growth (Lactobacillus rhamnosus; 48 hours after inoculation): 2.1 × 10^9 cfu/mL | Growth (Lactobacillus rhamnosus; 60 hours after inoculation): 2.6 × 10^9 cfu/mL | higher than 0% control (Lactobacillus rhamnosus; first 12 hours, 0.2% MSM): 41% | higher than 0% control (Lactobacillus rhamnosus; first 12 hours, 1% MSM): 47% | recovered more than the 0% control (Lactobacillus rhamnosus; first 12 hours, all MSM samples): at least 12% | Log Growth of Lactobacillus acidophilus in Milk fortified with MSM ([1]; Day 7): 10.42 logs | Log Growth of Lactobacillus acidophilus in Milk fortified with MSM ([1]; Day 21): 5.37 logs | Log Growth of Lactobacillus acidophilus in Milk fortified with MSM ([1]; Day 28): 3.94 logs | Log Growth of Lactobacillus acidophilus in Milk fortified with MSM ([1]; hour 0): 6.41 logs | Log Growth of Lactobacillus acidophilus in Milk fortified with MSM ([1]; hour 8): 8.67 logs | Log Growth of Lactobacillus acidophilus in Milk fortified with MSM ([1]; hour 24): 9.16 logs | Log Growth of Lactobacillus acidophilus in Milk fortified with MSM ([1]; hour 32): 8.87 logs | Log Growth of Lactobacillus acidophilus in Milk fortified with MSM ([1]; hour 48): 8.3 logs | Log Growth of Lactobacillus acidophilus in Milk fortified with MSM ([1]; hour 56): 8.56 logs | Log Growth of Lactobacillus acidophilus in Milk fortified with MSM ([1]; hour 72): 8.45 logs | Log Growth of Lactobacillus acidophilus in Milk fortified with MSM ([1]; hour 80): 9.82 logs | Log Growth of Lactobacillus acidophilus in Milk fortified with MSM ([1]; hour 96): 8.61 logs | Log Growth of Lactobacillus acidophilus in Milk fortified with MSM ([1]; hour 104): 8.92 logs | Growth, percent transmittance at 750 nm (Chlorella sorokiniana; MSM 0.5%, Sample Day 0): 47.3% | Growth, percent transmittance at 750 nm (Chlorella sorokiniana; MSM 0.5%, Sample Day 1): 41.8% | Growth, percent transmittance at 750 nm (Chlorella sorokiniana; MSM 0.5%, Sample Day 2): 29.3% | Growth, percent transmittance at 750 nm (Chlorella sorokiniana; MSM 0.5%, Sample Day 3): 29.6% | Growth, percent transmittance at 750 nm (Chlorella sorokiniana; MSM 0.5%, Sample Day 4): 19.0% | Growth, percent transmittance at 750 nm (Chlorella sorokiniana; MSM 0.5%, Sample Day 5): 12.4% | Growth, percent transmittance at 750 nm (Chlorella sorokiniana; MSM 0.5%, Sample Day 6): 12.5% | Growth, percent transmittance at 750 nm (Chlorella sorokiniana; MSM 0.5%, Sample Day 7): 11.9% | Growth, percent transmittance at 750 nm (Chlorella sorokiniana; MSM 0.5%, Sample Day 8): 12.2% | Growth, percent transmittance at 750 nm (Chlorella sorokiniana; MSM 0.5%, Sample Day 9): 7.5% | Growth, percent transmittance at 750 nm (Chlorella sorokiniana; MSM 0.5%, Sample Day 10): 6.4% | Growth, percent transmittance at 750 nm (Chlorella sorokiniana; MSM 1%, Sample Day 0): 48.7% | Growth, percent transmittance at 750 nm (Chlorella sorokiniana; MSM 1%, Sample Day 1): 42.5% | Growth, percent transmittance at 750 nm (Chlorella sorokiniana; MSM 1%, Sample Day 2): 37.5% | Growth, percent transmittance at 750 nm (Chlorella sorokiniana; MSM 1%, Sample Day 3): 37.5% | Growth, percent transmittance at 750 nm (Chlorella sorokiniana; MSM 1%, Sample Day 4): 17.3% | Growth, percent transmittance at 750 nm (Chlorella sorokiniana; MSM 1%, Sample Day 5): 13.5% | Growth, percent transmittance at 750 nm (Chlorella sorokiniana; MSM 1%, Sample Day 6): 13.0% | Growth, percent transmittance at 750 nm (Chlorella sorokiniana; MSM 1%, Sample Day 7): 12.5% | Growth, percent transmittance at 750 nm (Chlorella sorokiniana; MSM 1%, Sample Day 8): 12.4% | Growth, percent transmittance at 750 nm (Chlorella sorokiniana; MSM 1%, Sample Day 9): 7.8% | Growth, percent transmittance at 750 nm (Chlorella sorokiniana; MSM 1%, Sample Day 10): 6.6% | Growth, percent transmittance at 750 nm (Chlorella sorokiniana; MSM 5%, Sample Day 0): 35.6% | Growth, percent transmittance at 750 nm (Chlorella sorokiniana; MSM 5%, Sample Day 1): 31.2% | Growth, percent transmittance at 750 nm (Chlorella sorokiniana; MSM 5%, Sample Day 2): 27.4% | Growth, percent transmittance at 750 nm (Chlorella sorokiniana; MSM 5%, Sample Day 3): 21.4% | Growth, percent transmittance at 750 nm (Chlorella sorokiniana; MSM 5%, Sample Day 4): 18.2% | Growth, percent transmittance at 750 nm (Chlorella sorokiniana; MSM 5%, Sample Day 5): 15.7% | Growth, percent transmittance at 750 nm (Chlorella sorokiniana; MSM 5%, Sample Day 6): 15.9% | Growth, percent transmittance at 750 nm (Chlorella sorokiniana; MSM 5%, Sample Day 7): 16.3% | Growth, percent transmittance at 750 nm (Chlorella sorokiniana; MSM 5%, Sample Day 8): 17.0% | Growth, percent transmittance at 750 nm (Chlorella sorokiniana; MSM 5%, Sample Day 9): 13.7% | Growth, percent transmittance at 750 nm (Chlorella sorokiniana; MSM 5%, Sample Day 10): 12.8% | Growth, percent transmittance at 750 nm (Chlorella sorokiniana; MSM 10%, Sample Day 0): 31.2% | Growth, percent transmittance at 750 nm (Chlorella sorokiniana; MSM 10%, Sample Day 1): 31.3% | Growth, percent transmittance at 750 nm (Chlorella sorokiniana; MSM 10%, Sample Day 2): 29.7% | Growth, percent transmittance at 750 nm (Chlorella sorokiniana; MSM 10%, Sample Day 3): 28.4% | Growth, percent transmittance at 750 nm (Chlorella sorokiniana; MSM 10%, Sample Day 4): 29.0% | Growth, percent transmittance at 750 nm (Chlorella sorokiniana; MSM 10%, Sample Day 5): 28.7% | Growth, percent transmittance at 750 nm (Chlorella sorokiniana; MSM 10%, Sample Day 6): 27.1% | Growth, percent transmittance at 750 nm (Chlorella sorokiniana; MSM 10%, Sample Day 7): 27.6% | Growth, percent transmittance at 750 nm (Chlorella sorokiniana; MSM 10%, Sample Day 8): 27.1% | Growth, percent transmittance at 750 nm (Chlorella sorokiniana; MSM 10%, Sample Day 9): 76.4% | Growth, percent transmittance at 750 nm (Chlorella sorokiniana; MSM 10%, Sample Day 10): 93.8% | Growth, percent transmittance at 750 nm (Chlorella sorokiniana; MSM 20%, Sample Day 0): 19.3% | Growth, percent transmittance at 750 nm (Chlorella sorokiniana; MSM 20%, Sample Day 1): 21.9% | Growth, percent transmittance at 750 nm (Chlorella sorokiniana; MSM 20%, Sample Day 2): 24.1% | Growth, percent transmittance at 750 nm (Chlorella sorokiniana; MSM 20%, Sample Day 3): 28.1% | Growth, percent transmittance at 750 nm (Chlorella sorokiniana; MSM 20%, Sample Day 4): 31.4% | Growth, percent transmittance at 750 nm (Chlorella sorokiniana; MSM 20%, Sample Day 5): 33.6% | Growth, percent transmittance at 750 nm (Chlorella sorokiniana; MSM 20%, Sample Day 6): 36.8% | Growth, percent transmittance at 750 nm (Chlorella sorokiniana; MSM 20%, Sample Day 7): 40.6% | Growth, percent transmittance at 750 nm (Chlorella sorokiniana; MSM 20%, Sample Day 8): 40.8% | Growth, percent transmittance at 750 nm (Chlorella sorokiniana; MSM 20%, Sample Day 9): 84.8% | Growth, percent transmittance at 750 nm (Chlorella sorokiniana; MSM 20%, Sample Day 10): 96.7% | Growth, percent transmittance at 750 nm (Chlorella sorokiniana; MSM […], Sample Day 0): 40.6% | Growth, percent transmittance at 750 nm (Chlorella sorokiniana; MSM […], Sample Day 1): 43.1% | Growth, percent transmittance at 750 nm (Chlorella sorokiniana; MSM […], Sample Day 2): 44.9% | Growth, percent transmittance at 750 nm (Chlorella sorokiniana; MSM […], Sample Day 3): 43.8% | Growth, percent transmittance at 750 nm (Chlorella sorokiniana; MSM […], Sample Day 4): 26.1% | Growth, percent transmittance at 750 nm (Chlorella sorokiniana; MSM […], Sample Day 5): 10.3% | Growth, percent transmittance at 750 nm (Chlorella sorokiniana; MSM […], Sample Day 6): 10.9% | Growth, percent transmittance at 750 nm (Chlorella sorokiniana; MSM […], Sample Day 7): 11.0% | Growth, percent transmittance at 750 nm (Chlorella sorokiniana; MSM […], Sample Day 8): 11.2% | Growth, percent transmittance at 750 nm (Chlorella sorokiniana; MSM […], Sample Day 9): 8.4% | Growth, percent transmittance at 750 nm (Chlorella sorokiniana; MSM […], Sample Day 10): 6.0% | Log Growth of L. acidophilus in milk average ([2]; 5% MSM, 0 hours): 0.41 logs | Log Growth of L. acidophilus in milk average ([2]; 5% MSM, 3 hours): 0.41 logs | Log Growth of L. acidophilus in milk average ([2]; 5% MSM, 6 hours): 0.91 logs | Log Growth of L. acidophilus in milk in duplicate ([2]; 5% MSM, 6 hours): 0.82 logs and 1 logs | Log Growth of L. acidophilus in milk average ([2]; 5% MSM, 9 hours): 0.52 logs | Log Growth of L. acidophilus in milk in duplicate ([2]; 5% MSM, 9 hours): 0.52 logs | Log Growth of L. acidophilus in milk average ([2]; 5% MSM, 12 hours): 1.10 logs | Log Growth of L. acidophilus in milk average ([2]; 5% MSM, 15 hours): 1.43 logs | Log Growth of L. acidophilus in milk in duplicate ([2]; 5% MSM, 15 hours): 1.43 logs | Log Growth of L. acidophilus in milk average ([2]; 5% MSM, 24 hours): 1.66 logs | Log Growth of L. acidophilus in milk in duplicate ([2]; 5% MSM, 24 hours): 1.67 logs and 1.64 logs | Log Growth of L. acidophilus in milk average ([2]; 5% MSM, 48 hours): 1.33 logs | Log Growth of L. acidophilus in milk in duplicate ([2]; 5% MSM, 48 hours): 1.22 logs and 1.43 logs | decrease in growth ([2]; 5.0% MSM, Hour 48): 0.33 logs | increase in growth ([2]; 5.0% MSM, at 24 hours): 0.23 logs | Log Growth of L. acidophilus in milk average ([2]; […] MSM, 0 hours): 0 logs | Log Growth of L. acidophilus in milk in duplicate ([2]; […] MSM, 0 hours): 0 logs | Log Growth of L. acidophilus in milk average ([2]; […] MSM, 9 hours): 0.41 logs | decrease in growth ([2]; […] MSM, Hour 48): 0.38 logs | decrease in growth ([2]; […] MSM, at 24 hours): 0.11 logs | increase in growth ([2]; printed […] MSM, at 24 hours): 0.30 logs
